One data set has as its system LNCaP cells. In words: Cell proliferation inhibition assay in LNCaP cells (0.2 nM DHT, CellTiter-Glo, 7 days). Format: cell-based, human. As to conditions: Homo sapiens, 168 h. On the procedure:
• 1. The human prostate cancer cell lines 22RV1 and LNCaP were purchased from ATCC. […] The cell concentration was adjusted to an appropriate concentration (determined based on the results of cell density optimization experiments), and the cells were seeded into a 96-well plate. A 100 µL cell suspension was added, resulting in 3000 cells per well. […] On the second day, for 22Rv1 cells, test compounds at different concentrations were added, and the cells were incubated at 37°C in a 5% CO2 incubator for 7 days; for LNCaP cells, test compounds at different concentrations were added first, and after 1 hour of treatment, 0.2 nM DHT was added. The cells were then incubated at 37°C in a 5% CO2 incubator for 7 days. • 4. After the incubation period, a volume of CellTiter-Glo detection reagent equal to the volume of the culture medium was added to each well. The plate was shaken and mixed thoroughly for 5 minutes, then incubated at room temperature for 10 minutes. Readings were taken using a PerkinElmer EnVision microplate reader. • 5.
The IC50 curve was fitted and the IC50 value was calculated using the software GraphPad Prism 8 with the calculation formula XY-analysis/Nonlinear regression (curve fit)/Dose response-Inhibition/log (inhibitor) vs. response-Variable slope (four parameters).
Background: Cellular ATP, detected with luciferase, serves as a proxy for viable cell number.

Data set [1] can be described thus: Mouse pharmacokinetic test. Format: in vivo, ICR mice. Conditions: plasma, 30 mg/kg, PO-30mpk; for Tmax: read-out: Tmax. On the procedure:
Formulation preparation: The dosing solutions were prepared on the day of administration.
Six healthy male naive ICR mice weighing 25-30 g were selected and divided into two groups (intravenous and oral groups), with three mice in each group, and administered a single dose. […] Feeding was resumed 4 h after administration. Timing was initiated following intravenous and oral administration. […] The collected whole blood was briefly vortexed twice for mixing, placed on wet ice, and centrifuged at 4°C and 8000 rpm for 5 min within 1 h. The supernatant plasma was collected and stored at -80°C until processing and analysis. Table 3: Pharmacokinetics in mice

The test system of a further data set is 22RV1 cells. In words: Cell proliferation inhibition assay in 22RV1 cells (CellTiter-Glo, 7 days). As to conditions: Homo sapiens. Type of data set: cell-based, human. The essentials:
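LNCaP and 22RV1 human prostate cancer cells, 3000 per well, exposed to graded compound for 7 days at 37°C, 5% CO2; LNCaP got 0.2 nM DHT 1 h after compound. Viability by CellTiter-Glo luminescence; IC50 from four-parameter variable-slope fit.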

Where two headings read alike, the source gives them in different places.

As to `CC(C)(c1ccc(-c2cnc(OCc3ccnc(N4CC(S(=N)(=O)C5CC5)C4)n3)cn2)cc1)c1cc(Cl)c(OCCCl)c(C#N)c1` (single isomer, unassigned) [Compound 350B], in the data set on LNCaP cells, the half-maximal inhibitory concentration (IC50) was found to be 500 nM.
Compound `CC(C)(c1ccc(-c2ncc(OCc3ccnc(N4CC(S(C)(=N)=O)C4)n3)cn2)cc1)c1cc(Cl)c(OCCCl)c(C#N)c1` (single isomer, unassigned) [Compound 366A] yielded an IC50 in the data set with LNCaP cells of 970 nM.
Turning to `CC(C)(c1ccc(-c2ccc(OCc3ccnc(N4CC(S(N)(=O)=O)C4)n3)cn2)cc1)c1cc(Cl)c(OCCCl)c(C#N)c1` [Compound 180], in data set [1] (po), the AUC(0-inf) was 309 µg·h/mL, the concentration peaked (Cmax) at 34600 ng/mL, the half-life is 5.17 h and the Tmax came to 3 h. Also, it took 800 nM to reach half-maximal inhibition in the data set with 22RV1 cells (22Rv1, 168 h) (IC50).
For `CC(C)(c1ccc(-c2ccc(OCc3cccc(S(C)(=N)=O)n3)cc2)cc1)c1cc(Cl)c(OCCCl)c(C#N)c1` (stereo not drawn) [Compound 188], in that order: 211 µg·h/mL, 17300 ng/mL, 7.5 h, 3 h and 1030 nM.
As to `CCCOc1c(Cl)cc(C(C)(C)c2ccc(-c3ccc(OCc4ccnc(P(C)(C)=O)n4)cc3)cc2)cc1C#N` [Compound 191], in data set [1], the AUC(0-inf) amounted to 481 µg·h/mL, the Cmax worked out at 25000 ng/mL, the half-life was 13.2 h and the Tmax is 4 h. Also, the IC50 in the data set on 22RV1 cells (168 h) was 410 nM.
Consider `CC(C)(c1ccc(-c2ccc(OCc3ccnc(N4CC[C@H](S(C)(=O)=O)C4)n3)cc2)cc1)c1cc(Cl)c(OCCCl)c(C#N)c1` [Compound 202], for which, in data set [1] (po), the AUC(0-inf) amounted to 202 µg·h/mL, the Cmax amounted to 8880 ng/mL, the half-life was 18.5 h and the Tmax is 4 h. For the same compound, the IC50 with 22RV1 cells (22Rv1, 168 h) came out at 660 nM.
On to `CC(C)(c1ccc(-c2ccc(OCc3ncc(P(C)(C)=O)s3)cc2)cc1)c1cc(Cl)c(OCCCl)c(C#N)c1` [Compound 221], for which, in data set [1] (po), the AUC(0-inf) stood at 464 µg·h/mL, the Cmax stood at 19300 ng/mL, the half-life is 10.4 h and the Tmax came out at 5 h. In addition, in the data set with 22RV1 cells (22Rv1, 168 h), the IC50 is 1040 nM.
For the compound `COc1c(Cl)cc(C(C)(C)c2ccc(-c3ccc(OCc4ccnc(P(C)(C)=O)n4)cc3)cc2)cc1C#N` [Compound 237], in data set [1] (po), the AUC(0-inf) was 213 µg·h/mL, the Cmax came to 16200 ng/mL, the half-life was 4.2 h and the Tmax worked out at 3 h. For the same compound, the midpoint of inhibition in the data set on 22RV1 cells (22Rv1, 168 h), the IC50, lay at 860 nM.
For `CC(C)(c1ccc(-c2ccc(OCc3ccnc(N4CC5(CC(S(C)(=N)=O)C5)C4)n3)cc2)cc1)c1cc(Cl)c(OCCCl)c(C#N)c1` (stereo not drawn) [Compound 245], in data set [1] (po), the AUC(0-inf) came out at 181 µg·h/mL, the peak level (Cmax) was 11000 ng/mL, the half-life is 7.3 h and the time to peak (Tmax) was 5 h. Besides, the midpoint of inhibition in the data set with 22RV1 cells (22Rv1, 168 h), the IC50, lay at 990 nM.
With `CC(C)(c1ccc(-c2ccc(COc3ccnc(P(C)(C)=O)n3)cc2)cc1)c1cc(Cl)c(OCCCl)c(C#N)c1` [Compound 253], in data set [1] (po), the AUC(0-inf) was determined as 298 µg·h/mL, the Cmax turned out to be 20800 ng/mL, the half-life is 7.3 h and the Tmax is 5 h. Moreover, the IC50 in the data set with 22RV1 cells (22Rv1, 168 h) stood at 1060 nM.
`CNS(=O)(=O)C1CN(c2nccc(COc3ccc(-c4ccc(C(C)(C)c5cc(Cl)c(OCCCl)c(C#N)c5)cc4)nc3)n2)C1` [Compound 258]: in data set [1] (po), the AUC(0-inf) was found to be 323 µg·h/mL, the Cmax stood at 39200 ng/mL, the half-life is 5.2 h and the Tmax was 3 h. For the same compound, the midpoint of inhibition in the data set with 22RV1 cells (22Rv1, 168 h), the IC50, lay at 630 nM.
As to `CC(C)(c1ccc(-c2ncc(OCc3ccc(-c4cnc(P(C)(C)=O)nc4)cc3)cn2)cc1)c1cc(Cl)c(OCCCl)c(C#N)c1` [Compound 272], in data set [1] (po), the AUC(0-inf) was 755 µg·h/mL, the maximum concentration (Cmax) came out at 53200 ng/mL, the half-life is 5.8 h and the Tmax was determined as 4 h. In the data set with 22RV1 cells (22Rv1, 168 h), the IC50 amounted to 650 nM.
Turning to `C[C@H](Cl)COc1c(Cl)cc(C(C)(C)c2ccc(-c3ccc(OCc4ccnc(P(C)(C)=O)n4)cc3)cc2)cc1C#N` [Compound 283], in data set [1] (po), the AUC(0-inf) came to 277 µg·h/mL, the peak level (Cmax) was 18700 ng/mL, the half-life is 9.3 h and the Tmax came out at 4 h. This compound also came in with an IC50 with 22RV1 cells (22Rv1, 168 h) of 840 nM.
`CC(C)(c1ccc(-c2ccc(OCC3CC4(C3)CS(=N)(=O)C4)cc2)cc1)c1cc(Cl)c(OCCCl)c(C#N)c1` (stereo not drawn) [Compound 308]: in data set [1] (po), the AUC(0-inf) came to 186 µg·h/mL, the Cmax is 14300 ng/mL, the half-life was 4.45 h and the Tmax came out at 3 h. Also, the IC50 with 22RV1 cells (22Rv1, 168 h) amounted to 750 nM.
`CC(C)(c1ccc(-c2cccc3c(OCc4ccnc(P(C)(C)=O)n4)nccc23)cc1)c1cc(Cl)c(OCCCl)c(C#N)c1` [Compound 345] displayed a half-maximal inhibitory concentration (IC50) in the data set with LNCaP cells of 230 nM.
For `CC(C)(c1ccc(-c2ccc(OCC34CC(c5cnc(P(C)(C)=O)nc5)(C3)C4)cn2)cc1)c1cc(Cl)c(OCCCl)c(C#N)c1` [Compound 367], inhibition with LNCaP cells was half-maximal at 910 nM (IC50).
Take `CC(C)(c1ccc(-c2cnc(OCc3ccnc(N4CC(S(C)(=N)=O)C4)n3)nc2)cc1)c1cc(Cl)c(OCCCl)c(C#N)c1` (stereo not drawn) [Compound 372]: the IC50 in the data set with LNCaP cells turned out to be 660 nM.
In turn, `CC(C)(c1ccc(-c2cnc(OCc3ccc(-c4cnc(P(C)(C)=O)nc4)nc3)nc2)cc1)c1cc(Cl)c(OCCCl)c(C#N)c1` [Compound 374] came in with an IC50 in the data set on LNCaP cells of 920 nM.
Take `CC(C)(c1ccc(-c2cnc(COc3ccnc(N4CC(S(C)(=O)=O)C4)n3)nc2)cc1)c1cc(Cl)c(OCCCl)c(C#N)c1` [Compound 383]: inhibition with LNCaP cells was half-maximal at 580 nM (IC50).
In turn, `CC(C)(c1ccc(-c2ccc(Oc3ncc(-c4cnc(CP(C)(C)=O)nc4)cn3)cc2)cc1)c1cc(Cl)c(OCCCl)c(C#N)c1` [Compound 399] showed an IC50 with LNCaP cells of 970 nM.
As to `CC(C)(c1ccc(-c2ccc(OCc3ccnc(N4CC5(C4)CS(=N)(=O)C5)n3)nc2)cc1)c1cc(Cl)c(OCCCl)c(C#N)c1` [Compound 400], in the data set on LNCaP cells, the IC50 came to 690 nM.
The same measure, in the same setting: to `CC(C)(c1ccc(-c2ccc(OCc3ccnc(N4CC5(CCS5(=N)=O)C4)n3)cn2)cc1)c1cc(Cl)c(OCCCl)c(C#N)c1` (stereo not drawn) [Compound 404] belongs 490 nM; to `CC(C)(c1ccc(-c2ccc(OCc3cnc(-c4cnc(P(C)(C)=O)nc4)cn3)cc2)cc1)c1cc(Cl)c(OCCCl)c(C#N)c1` [Compound 408], 180 nM; to `CC(C)(c1ccc(-c2ccc(OCc3ccnc(N4CC(S(C)(=O)=NC#N)C4)n3)cn2)cc1)c1cc(Cl)c(OCCCl)c(C#N)c1` (stereo not drawn) [Compound 413], 800 nM.
`CC(C)(c1ccc(-c2ccc(OCc3ccnc(N4CC(S(C)(=O)=O)C4)n3)nn2)cc1)c1cc(Cl)c(OCCCl)c(C#N)c1` [Compound 423] came in with an IC50 in the data set with LNCaP cells of 460 nM.
For the compound `CC(C)(c1ccc(-c2ncc(OCc3ccc(-c4cnc(P(C)(C)=O)nc4)nc3)cn2)cc1)c1cc(Cl)c(OCCCl)c(C#N)c1` [Compound 426], half-maximal inhibition in the data set with LNCaP cells (IC50) required 940 nM.
Turning to `CC(C)(c1ccc(-c2ccc(COc3ccnc(P(C)(C)=O)n3)nc2)cc1)c1cc(Cl)c(OCCCl)c(C#N)c1` [Compound 427], in the data set with LNCaP cells, half-maximal inhibition (IC50) was put at 830 nM.
`CC(C)(c1ccc(-c2ccc3c(c2)C(=O)N(Cc2ccnc(P(C)(C)=O)n2)C3)cc1)c1cc(Cl)c(OCCCl)c(C#N)c1` [Compound 439] registered an IC50 with LNCaP cells of 470 nM.
For the compound `CC(=O)c1nccc(COc2cnc(-c3ccc(C(C)(C)c4cc(Cl)c(OCCCl)c(C#N)c4)cc3)cn2)n1` [Compound 441], half-maximal inhibition in the data set on LNCaP cells (IC50) required 950 nM.
Turning to `CC(C)(c1ccc(-c2ncc(OCc3ccc(-c4ccc(P(C)(C)=O)nn4)cc3)cn2)cc1)c1cc(Cl)c(OCCCl)c(C#N)c1` [Compound 455], inhibition with LNCaP cells was half-maximal at 160 nM (IC50).
The same measure, in the same setting: with `CC(C)(c1ccc(N2CCCc3cc(OCc4ccnc(P(C)(C)=O)n4)ccc32)cc1)c1cc(Cl)c(OCCCl)c(C#N)c1` [Compound 457] the figure was 970 nM.
In the case of `CC(C)(c1ccc(-c2ccc(OCc3ccnc(P(C)(C)=O)n3)cc2)nc1)c1cc(Cl)c(OCCCl)c(C#N)c1` [Compound 459], in the data set on LNCaP cells (LNCaP), inhibition was half-maximal at 990 nM (IC50).
In turn, `CC(C)(c1ccc(-c2ccc(OCc3ccnc(N4CC(S(C)(=O)=O)C4)n3)cc2)nc1)c1cc(Cl)c(OCCCl)c(C#N)c1` [Compound 460] came in with an IC50 in the data set on LNCaP cells of 450 nM.
Same read-out and setting: to `CC(C)(c1ccc(-c2ccc(OCc3ccnc(N4CC(S(C)(=N)=O)C4)n3)cc2)nc1)c1cc(Cl)c(OCCCl)c(C#N)c1` (stereo not drawn) [Compound 461] belongs 580 nM; to `CC(C)(c1cc(Cl)c(OCCCl)c(C#N)c1)c1ccc(-c2ccc(OCc3ccnc(P(C)(C)=O)n3)cc2)cn1` [Compound 474], 680 nM.
The compound `CC(C)(c1cc(Cl)c(OCCCl)c(C#N)c1)c1ccc(-c2ccc(OCc3ccnc(N4CC(S(C)(=N)=O)C4)n3)cn2)cn1` (stereo not drawn) [Compound 475] registered an IC50 with LNCaP cells of 700 nM.

As a reminder, the IC50 is the concentration at which inhibition is half-maximal. Lower therefore signals inhibition by little substance. For orientation: AUC(0-inf) means the area under the concentration-time curve extrapolated to infinity. Read a low AUC(0-inf) as low exposure. For orientation: Cmax means the maximum level reached in the sampled fluid or tissue. Broadly, the half-life is the time in which the quantity being followed falls by half. Higher therefore signals slow loss. For orientation: Tmax means the time from dosing to the highest level.

These data come from patent EP4778922A1, “BICYCLIC COMPOUND, AND PREPARATION METHOD THEREFOR AND PHARMACEUTICAL USE THEREOF” (Shanghai Jeyou Pharmaceutical Co., Ltd., priority 2023, dated 2025).
